Reference: the NIST ThermoML archive (doi:10.1021/je050333h)

Experiments:
[1] = 101 kPa, Liquid; for speed of sound: Sing-around technique in a fixed-path interferometer
[2] = cn = amount concentration of the nth substance listed, in mol/dm3; settings: 101 kPa, Liquid, c2 = 0; for speed of sound: Sing-around technique in a fixed-path interferometer

CC(C)CC(C)(C)C [2,2,4-trimethylpentane]
[1]
Settings	kinematic viscosity [m2/s]	mass density [kg/m3]	speed of sound [m/s]
293.15 K	7.33e-07	690.6	1103.2
298.15 K	6.97e-07	686.3	1082.2
303.15 K	6.63e-07	680.84	1061.3
313.15 K	6.02e-07	673.37	1020.1
323.15 K	5.49e-07	664.65	979.5

CC(C)CC(C)(C)C [2,2,4-trimethylpentane] + CCCCC(CC)COC(=O)CC(C(=O)OCC(CC)CCCC)S(=O)(=O)[O-].[Na+]
[2]
Settings	kinematic viscosity [m2/s]	mass density [kg/m3]	speed of sound [m/s]
293.15 K	7.33e-07	690.6	1103.2
298.15 K	6.97e-07	686.3	1082.2
303.15 K	6.63e-07	680.84	1061.3
313.15 K	6.02e-07	673.37	1020.1
323.15 K	5.49e-07	664.65	979.5
